# Measured values from patent US4404138A, “3-[2-(Azabicyclo) ethyl]-1,2,3,4-tetrahydro-5H-[1]benzopyrano[3,4-c]pyridin-5-ones” (Warner-Lambert Company, priority 1982, dated 1983).
# Structures can show the parent of a compound that is named as a salt. Where two headings read alike, the source gives them in different places.
# Key:
# [1] = tested on: pilocarpine-induced bronchospasm and salivary flow in mongrel dogs; experiment: Pilocarpine-induced bronchospasm and salivation in anesthetized mongrel dogs; type: in vivo; settings: for ED50: Canis lupus familiaris, anesthetized dogs, pilocarpine nitrate 0.2 mg/kg/hr infusion, cumulative IV doses; for Pulmonary Selectivity*: value >1 indicates the compound is more potent as a bronchodilator than as an antisecretory agent
# Description: In an additional testing procedure, mongrel dogs of either sex, 10.6 to 15.3 kg, are anesthetized with sodium pentobarbital, 30 mg/kg IV and then prepared for the monitoring of pulmonary mechanics. A Buxco pulmonary mechanics computer is used to calculate pulmonary resistance, dynamic compliance, and tidal volume from transpulmonary pressure and flow data. Respiratory rate, heart rate and mean arterial blood pressure are also monitored. The femoral vein is cannulated for the delivery of drugs.
# Pilocarpine nitrate (0.2 mg/kg/hr) is than infused to induce a bronchospasm and salivary flow. […] Salivary output is collected from a catheterized Wharton's duct at five minute intervals. After salivation has stabilized, three control collections are taken at five minute intervals followed by a series of cumulative IV doses of test compound (1, 3, 10, 30, 100, 300, 1000, 3000, and 10,000 μg/kg) that are injected every five minutes for 45 minutes.
# The percent inhibition of both the bronchospasm and salivation are calculated for each dose with a return to prepilocarpine resistance levels or cessation of salivation equal to a 100% inhibition.
# [2] = tested on: Conscious guinea pigs exposed to an aerosol of methacholine; experiment: Methacholine aerosol collapse time in conscious guinea pigs (anticholinergic test); type: in vivo; settings: 25 mg/kg intraperitoneally, 10 minutes methacholine aerosol; for (Minutes Protection): collapse time, Control 1.9 to 2.0
# Description: Conscious guinea pigs, six at a time, are put into a sealed chamber and exposed for 10 minutes to an aerosol of methacholine.
# [3] = inhibition of bronchospasm, read-out: ID50 μg/kg Bronchospasm
# [4] = inhibition of salivation, read-out: ID50 μg/kg Salivation
Compound,(Minutes Protection) [2] [min],other results
"COc1cc2oc(=O)c3c(c2cc1OC)CCN(CCN1CC2CCC(CC2)C1)C3 [R1=MeO, R2=MeO, R3=H, X=drawing 15]",–,"ED50 [1, 3]: 113 µg/kg; ED50 [1, 4]: 530 µg/kg; Pulmonary Selectivity* [1]: 4.7"
"O=c1oc2c(ccc3ccccc32)c2c1CN(CCN1CC3CCC(CC3)C1)CC2 [R1=H, R2+R3=CH CHCHCH, X=drawing 10, 2-[2-(3-Azabicyclo[3.2.2]non-3-yl)ethyl]-1,2,3,4-tetrahydro-12H-naphtho[2',1',:5,6]pyrano[3,4-c]pyridin-12-one dihydrochloride]",2.7,–
"Cl.Cl.O=c1oc2cc(-c3ccccc3)ccc2c2c1CN(CCN1CC3CCC(CC3)C1)CC2 [R1=H, R2=Ph, R3=H, X=drawing 10, 3-[2-(3-Azabicyclo[3.2.2]non-3-yl)ethyl]-1,2,3,4-tetrahydro-8-phenyl-5H-[1]benzopyrano[3,4-c]pyridin-5-one, dihydrochloride]",2.1,–
"CC(=O)Nc1cc2c3c(c(=O)oc2cc1C)CN(CCN1CC2CCC(CC2)C1)CC3 [R1=NHCOCH3, R2=Me, R3=H, X=drawing 10, N-{3-[2-(3-Azabicyclo[3.2.2]non-3-yl)ethyl]-1,2,3,4-tetrahydro-8-methyl-5-oxo-2H-[1]benzopyrano[3,4-c]pyridin-9-yl}-acetamide]",–,"(Minutes Protection), given in words ([2]; time not given): Active"
"CC(C)c1ccc2c3c(c(=O)oc2c1)CN(CCN1CC2CCC(CC2)C1)CC3.Cl.Cl [R1=H, R2=CHMe2, R3=H, X=drawing 10, 3-[2-(3-Azabicyclo[3.2.2]non-3-yl)ethyl]-1,2,3,4-tetrahydro-8-(1-methylethyl)-5H-[1]benzopyrano[3,4-c]pyridin-5-one dihydrochloride]",6.2,–
"Cc1ccc2c3c(c(=O)oc2c1)CN(CCN1CC2CCC1CC2)CC3 [R1=H, R2=Me, R3=H, X=drawing 11, 3-[2-(2-Azabicyclo[2.2.2]oct-2-yl)ethyl]-1,2,3,4-tetrahydro-8-methyl-5H-[1]benzopyrano[3,4-c]pyridin-5-one]",2.3,–
"CCc1ccc2c3c(c(=O)oc2c1)CN(CCN1CC2CCC(CC2)C1)CC3.Cl.Cl [R1=H, R2=Et, R3=H, X=drawing 10, 3-(2-(3-Azabicyclo[3,2,2]non-3-yl)ethyl]-8-ethyl-1,2,3,4-tetrahydro-5H-benzopyrano[3,4-c]pyridin-5-one, dihydrochloride]",6.8,–
"Cc1cc2oc(=O)c3c(c2cc1C)CCN(CCN1CC2CCC(CC2)C1)C3 [R1=Me, R2=Me, R3=H, X=drawing 10, 3-[2-(3-Azabicyclo[3.2.2]non-3-yl)ethyl]-1,2,3,4-tetrahydro-8,9-dimethyl-5H-[1]benzopyrano[3,4-c]pyridin-5-one]",5.1,–
"COc1ccc2c3c(c(=O)oc2c1)CN(CCN1CC2CCC1CC2)CC3 [R1=H, R2=MeO, R3=H, X=drawing 16]",–,"ED50 [1, 3]: 63 µg/kg; ED50 [1, 4]: 102 µg/kg; Pulmonary Selectivity* [1]: 1.61"
"COc1ccc2c3c(c(=O)oc2c1)CN(CCN1CC2CCC(CC2)C1)CC3.Cl.Cl [R1=H, R2=MeO, R3=H, X=drawing 10, 3-[2-(3-Azabicyclo[3.2.2]non-3-yl)ethyl]-1,2,3,4-tetrahydro-8-methoxy-5H-[1]benzopyrano[3,4-c]pyridin-5-one, dihydrochloride]",6.0,–
"O=c1oc2cc3c(cc2c2c1CN(CCN1CC4CCC(CC4)C1)CC2)OCO3 [R1+R2=OCH2O, R3=H, X=drawing 10, 3-[2-(3-Azabicyclo[3.2.2]non-3-yl)ethyl]-1,2,3,4-tetrahydro-5H-[1,3]benzodioxolo[5',6':5,6]pyrano[3,4-c]pyridin-5-one]",2.3,–
"Cc1cc2oc(=O)c3c(c2cc1Cl)CCN(CCN1CC2CCCC(C2)C1)C3 [R1=Cl, R2=Me, R3=H, X=drawing 12]",2.6,–
"Cc1cc2oc(=O)c3c(c2cc1Cl)CCN(CCN1CC2CCC(CC2)C1)C3 [R1=Cl, R2=Me, R3=H, X=drawing 10, 3-[2-(3-Azabicyclo[3.2.2]non-3-yl)ethyl]-9-chloro-1,2,3,4-tetrahydro-8-methyl-5H-[1]benzopyrano[3,4-c]pyridin-5-one]",2.1,–
"COc1cc2oc(=O)c3c(c2cc1OC)CCN(CCN1CC2CCCC(C2)C1)C3 [R1=MeO, R2=MeO, R3=H, X=drawing 12, 3-[2-(3-Azabicyclo[3.3.1]non-3-yl)ethyl]-1,2,3,4-tetrahydro-8,9-dimethoxy-5H-[1]benzopyrano[3,4-c]pyridin-5-one]",6.6,–
"O=c1oc2ccccc2c2c1CN(CCN1CC3CCC(CC3)C1)CC2 [R1=H, R2=H, R3=H, X=drawing 10, 3-[2-(3-Azabicyclo[3.2.2]non-3-yl)ethyl]-1,2,3,4-tetrahydro-5H-[1]benzopyrano[3,4-c]pyridin-5-one]",5.2,–
"Cc1ccc2c3c(c(=O)oc2c1)CN(CCN1CC2CCC(CC2)C1)CC3 [R1=H, R2=Me, R3=H, X=drawing 10, 3-[2-(3-Azabicyclo[3.2.2]non-3-yl)ethyl]-1,2,3,4-tetrahydro-8-methyl-5H-[1]benzopyrano[3,4-c]pyridin-5-one]",5.0,–
"Br.Br.O=c1oc2cc(O)c(O)cc2c2c1CN(CCN1CC3CCC(CC3)C1)CC2 [R1=OH, R2=OH, R3=H, X=drawing 10, 3-[2-(3-Azabicyclo[3.2.2]non-3-yl)ethyl]-1,2,3,4-tetrahydro-8,9-dihydroxy-5H-[1]benzopyrano[3,4-c]pyridin-5-one dihydrobromide]",2.1,–
"COc1ccc2c3c(c(=O)oc2c1)CN(CCN1CC2CCC(CC2)C1)CC3 [R1=H, R2=MeO, R3=H, X=drawing 14]",–,"ED50 [1, 3]: 35 µg/kg; ED50 [1, 4]: 104 µg/kg; Pulmonary Selectivity* [1]: 3"
"O=c1oc2ccccc2c2c1CN(CCN1CC3CCCC(C3)C1)CC2 [R1=H, R2=H, R3=H, X=drawing 12, 3-[2-(3-Azabicyclo[3.3.1]non-3-yl)ethyl]-1,2,3,4-tetrahydro-5H-[1]benzopyrano[3,4-c]pyridin-5-one]",3.3,–
